Experimental data: ChEMBL document CHEMBL1154899, “Synthesis and biological evaluation of caffeic acid 3,4-dihydroxyphenethyl ester” (J Nat Prod, 2010)

Legend:
Type in all cases: functional
HOP-92 = assay: Antiproliferative activity against human HOP92 cells assessed as cell growth at 50 uM by SRB assay; settings: read-out: Activity
NCI-H226 = assay: Antiproliferative activity against human NCI-H226 cells assessed as cell growth at 50 uM by SRB assay; settings: read-out: Activity
COLO 205 = assay: Antiproliferative activity against human COLO205 cells assessed as cell growth at 50 uM by SRB assay; settings: read-out: Activity
HCT-15 = assay: Antiproliferative activity against human HCT15 cells assessed as cell growth at 50 uM by SRB assay; settings: read-out: Activity
SNB-75 [1] = assay: Antiproliferative activity against human SNB75 cells assessed as cell growth at 50 uM by SRB assay; settings: read-out: Activity
HCC 2998 = assay: Antiproliferative activity against human HCC2998 cells assessed as cell growth at 5 uM by SRB assay; settings: read-out: Activity
UACC-257 = assay: Antiproliferative activity against human UACC257 cells assessed as cell growth at 5 uM by SRB assay; settings: read-out: Activity
ACHN = assay: Antiproliferative activity against human ACHN cells assessed as cell growth at 5 uM by SRB assay; settings: read-out: Activity
SN12C = assay: Antiproliferative activity against human SN12C cells assessed as cell growth at 5 uM by SRB assay; settings: read-out: Activity
TK-10 = assay: Antiproliferative activity against human TK10 cells assessed as cell growth at 5 uM by SRB assay; settings: read-out: Activity
MDA-MB-231 [2] = assay: Antiproliferative activity against human MDA-MB-231 cells assessed as cell growth at 50 uM by SRB assay; settings: read-out: Activity
RXF 393 = assay: Antiproliferative activity against human RXF393 cells assessed as cell growth at 500 uM by SRB assay; settings: read-out: Activity
BT-549 = assay: Antiproliferative activity against human BT549 cells assessed as cell growth at 500 uM by SRB assay; settings: read-out: Activity
EKVX = assay: Antiproliferative activity against human EKVX cells assessed as cell growth at […] by SRB assay; settings: read-out: Activity
HOP-62 [3] = assay: Antiproliferative activity against human HOP62 cells assessed as cell growth at […] by SRB assay; settings: read-out: Activity
A549 [4] = assay: Antiproliferative activity against human A549 cells assessed as cell growth at 50 uM by SRB assay; settings: read-out: Activity
SNB-75 [5] = assay: Antiproliferative activity against human SNB75 cells assessed as cell growth at 5 mM by SRB assay; settings: read-out: Activity
HL-60(TB) [6] = assay: Antiproliferative activity against human HL-60(TB) cells assessed as cell growth at 500 uM by SRB assay; settings: read-out: Activity
K562 [7] = assay: Antiproliferative activity against human K562 cells assessed as cell growth at 500 uM by SRB assay; settings: read-out: Activity
LOX IMVI = assay: Antiproliferative activity against human LOXIMVI cells assessed as cell growth at 500 uM by SRB assay; settings: read-out: Activity
SK-MEL-2 [8] = assay: Antiproliferative activity against human SK-MEL-2 cells assessed as cell growth at 500 uM by SRB assay; settings: read-out: Activity
SK-MEL-28 = assay: Antiproliferative activity against human SK-MEL-28 cells assessed as cell growth at 500 uM by SRB assay; settings: read-out: Activity
UACC-62 = assay: Antiproliferative activity against human UACC62 cells assessed as cell growth at 500 uM by SRB assay; settings: read-out: Activity
MOLT-4 = assay: Antiproliferative activity against human MOLT4 cells by SRB assay
[9] = Antiproliferative activity against human […] cells by SRB assay
SW-620 = assay: Antiproliferative activity against human SW620 cells by SRB assay
SF-539 = assay: Antiproliferative activity against human SF539 cells by SRB assay
SK-MEL-2 [10] = assay: Antiproliferative activity against human SK-MEL-2 cells by SRB assay
IGROV-1 [11] = assay: Antiproliferative activity against human IGROV1 cells by SRB assay
MDA-MB-231 [12] = assay: Antiproliferative activity against human MDA-MB-231 cells by SRB assay
[13] = Antiproliferative activity against human Hs 578T cells by SRB assay
IGROV-1 [14] = assay: Antiproliferative activity against human IGROV1 cells assessed as cell growth at 0.5 uM by SRB assay; settings: read-out: Activity
MDA-MB-231 [15] = assay: Antiproliferative activity against human MDA-MB-231 cells assessed as cell growth at 0.5 uM by SRB assay; settings: read-out: Activity
HL-60(TB) [16] = assay: Antiproliferative activity against human HL-60(TB) cells assessed as cell growth at 0.5 uM by SRB assay; settings: read-out: Activity
K562 [17] = assay: Antiproliferative activity against human K562 cells assessed as cell growth at 0.5 uM by SRB assay; settings: read-out: Activity
A549 [18] = assay: Antiproliferative activity against human A549 cells assessed as cell growth at 0.5 uM by SRB assay; settings: read-out: Activity
HOP-62 [19] = assay: Antiproliferative activity against human HOP62 cells assessed as cell growth at 0.5 uM by SRB assay; settings: read-out: Activity
SF-295 = assay: Antiproliferative activity against human SF295 cells assessed as cell growth at 0.5 uM by SRB assay; settings: read-out: Activity
SK-MEL-2 [20] = assay: Antiproliferative activity against human SK-MEL-2 cells assessed as cell growth at 0.5 uM by SRB assay; settings: read-out: Activity
[21] = Antiproliferative activity against human Hs 578T cells assessed as cell growth at 0.5 uM by SRB assay; settings: read-out: Activity
NCI-H322M = assay: Antiproliferative activity against human NCI-H322M cells assessed as cell growth at 5 uM by SRB assay; settings: read-out: Activity
[22] = read-out: LC50 (the source's name)
[23] = read-out: pLC50 (the source's name) (converted)

## O=C(/C=C/c1ccc(O)c(O)c1)OCCc1ccc(O)c(O)c1
HOP-92
  growth at 50 µM: 55%
NCI-H226
  growth at 50 µM: 90%
COLO 205
  growth at 50 µM: 89%
HCT-15
  growth at 50 µM: 78%
SNB-75 [1]
  growth at 50 µM: 72%
HCC 2998
  growth at 5 µM: 107%
UACC-257
  growth at 5 µM: 92%
ACHN
  growth at 5 µM: 95%
SN12C
  growth at 5 µM: 80%
TK-10
  growth at 5 µM: 95%
MDA-MB-231 [2]
  growth at 50 µM: 97%
RXF 393
  growth at 500 µM: 89%
BT-549
  growth at 500 µM: 60%
EKVX
  growth: 19%
HOP-62 [3]
  growth: 38%
A549 [4]
  growth at 50 µM: 101%
SNB-75 [5]
  growth at 5000 µM: 30%
HL-60(TB) [6]
  growth at 500 µM: 37%
K562 [7]
  growth at 500 µM: 9%
LOX IMVI
  growth at 500 µM: 57%
SK-MEL-2 [8]
  growth at 500 µM: 38%
SK-MEL-28
  growth at 500 µM: 55%
UACC-62
  growth at 500 µM: 52%
MOLT-4; read-out: GI50
  GI50: 3.06 µM
MOLT-4; [22]
  CC50: > 50 µM
MOLT-4; read-out: TGI
  TGI: > 50 µM
MOLT-4; read-out: pGI50 (converted)
  GI50: 3.09 µM
MOLT-4; [23]
  CC50: > 50.1 µM
MOLT-4; read-out: pTGI
  TGI: > 50.1 µM
[9]; read-out: GI50
  GI50: 0.63 µM
[9]; [22]
  CC50: > 50 µM
[9]; read-out: TGI
  TGI: 8.48 µM
[9]; read-out: pGI50 (converted)
  GI50: 0.631 µM
[9]; [23]
  CC50: > 50.1 µM
[9]; read-out: pTGI (converted)
  TGI: 8.51 µM
SW-620; read-out: GI50
  GI50: 10.2 µM
SW-620; [22]
  CC50: > 50 µM
SW-620; read-out: TGI
  TGI: > 50 µM
SW-620; read-out: pGI50 (converted)
  GI50: 10.2 µM
SW-620; [23]
  CC50: > 50.1 µM
SW-620; read-out: pTGI
  TGI: > 50.1 µM
SF-539; read-out: GI50
  GI50: 5.83 µM
SF-539; [22]
  CC50: > 50 µM
SF-539; read-out: TGI
  TGI: 24.2 µM
SF-539; read-out: pGI50 (converted)
  GI50: 5.89 µM
SF-539; [23]
  CC50: > 50.1 µM
SF-539; read-out: pTGI (converted)
  TGI: 24 µM
SK-MEL-2 [10]; read-out: GI50
  GI50: 3.02 µM
SK-MEL-2 [10]; [22]
  CC50: > 50 µM
SK-MEL-2 [10]; read-out: TGI
  TGI: 23.7 µM
SK-MEL-2 [10]; read-out: pGI50 (converted)
  GI50: 3.02 µM
SK-MEL-2 [10]; [23]
  CC50: > 50.1 µM
SK-MEL-2 [10]; read-out: pTGI (converted)
  TGI: 23.4 µM
IGROV-1 [11]; read-out: GI50
  GI50: 2.86 µM
IGROV-1 [11]; [22]
  CC50: > 50 µM
IGROV-1 [11]; read-out: TGI
  TGI: 24.4 µM
IGROV-1 [11]; read-out: pGI50 (converted)
  GI50: 2.88 µM
IGROV-1 [11]; [23]
  CC50: > 50.1 µM
IGROV-1 [11]; read-out: pTGI (converted)
  TGI: 15.5 µM
MDA-MB-231 [12]; read-out: GI50
  GI50: 11.1 µM
MDA-MB-231 [12]; [22]
  CC50: > 50 µM
MDA-MB-231 [12]; read-out: TGI
  TGI: > 50 µM
MDA-MB-231 [12]; read-out: pGI50 (converted)
  GI50: 10.5 µM
MDA-MB-231 [12]; [23]
  CC50: > 50.1 µM
MDA-MB-231 [12]; read-out: pTGI
  TGI: > 50.1 µM
[13]; read-out: GI50
  GI50: 9.75 µM
[13]; [22]
  CC50: > 50 µM
[13]; read-out: TGI
  TGI: > 50 µM
[13]; read-out: pGI50 (converted)
  GI50: 9.77 µM
[13]; [23]
  CC50: > 50.1 µM
[13]; read-out: pTGI
  TGI: > 50.1 µM
IGROV-1 [14]
  growth at 0.5 µM: 112%
MDA-MB-231 [15]
  growth at 0.5 µM: 113%
HL-60(TB) [16]
  growth at 0.5 µM: 94%
K562 [17]
  growth at 0.5 µM: 107%
A549 [18]
  growth at 0.5 µM: 105%
HOP-62 [19]
  growth at 0.5 µM: 92%
SF-295
  growth at 0.5 µM: 98%
SK-MEL-2 [20]
  growth at 0.5 µM: 86%
[21]
  growth at 0.5 µM: 83%
NCI-H322M
  growth at 5 µM: 92%
